Measurements: patent US9248124B2, “Use of inhibitors of IκB kinase for the treatment of cancer” (Millennium Pharmaceuticals, Inc., priority 2001, dated 2016)
“Also recorded” adds a separate entry of the source.

Experiments:
[1] = system: IκBα phosphorylation and degradation in MM.1S cells; experiment: Immunoblot of IκBα phosphorylation and degradation triggered by TNFα in MM.1S cells; format: cell-based, human; conditions: Dex 1 μM 18 h, PS-341 5 μM 60 min, compound 1 10 μM 90 min, TNFα 5 ng/mL 5 min, FIG. 7; for TNFα-induced phosphorylation of IκBα: presence or absence of IL-6
Procedure: (§1) MM cells were cultured with PS-341 or compound 1; harvested; washed; and lysed using lysis buffer: 50 mM Tris-HCl (pH 7.4), 150 mM NaCl, 1% NP-40, 5 mM EDTA, 5 mM NaF, 2 mM Na3VO4, 1 mM PMSF, 5 μg/mL leupeptin, and 5 μg/mL aprotinin. For detection of phospho-IκBα, IκBα, phospho-MAPK, phospho-STAT3, ERK2 or alpha-tubulin, cell lysates were subjected SDS-PAGE, transferred to PVDF membrane (Bio-Rad Laboratories, Hercules, Calif.), and immunoblotted with anti-phospho-IκBα, -IκBα, -phospho-MAPK, or -phospho-STAT3 Abs (Cell Signaling, Beverly, Mass.), and anti-alpha-tubulin (Sigma) Abs.
Inhibition of IκBα phosphorylation by compound 1 was assayed in MM.1S and patient MM cells triggered by TNFα. […] To study the dose-dependent effect of compound 1, MM.1S cells were pre-treated with 1.25-40 μM compound 1 for 90 min, and then stimulated by TNFα (5 ng/mL).
The effect of Dex, compound 1, PS-341 and/or IL-6 on TNFα induced phosphorylation of IκBα in MM.1S cells was next examined. […] In contrast compound 1, in the presence or absence of IL-6, inhibits phosphorylation of IκBα. Dex inhibits TNFα-induced degradation of IκBα, whereas IL-6 blocks this effect. Both PS-341 and compound 1 inhibit degradation of IκBα, in the presence or absence of IL-6.

[2] = system: MM.1S cells; experiment: DNA synthesis ([3H]-TdR uptake) in MM.1S cells with Dex, IL-6, Thal or IMiD3; format: cell-based, human; conditions: IMiD3 0.25-1 μM, dose dependent, 48 h; FIG. 9
Procedure: (§2) Proliferation was measured as previously described (Hideshima et al., Blood 96:2943 (2000)). MM cells (3×10^4 cells/well) were incubated in 96-well culture plates (Costar, Cambridge, Mass.) in the presence of media, PS-341, compound 1 and/or Dex or recombinant human IL-6 (Genetics Institute, Cambridge, Mass.) for 48 h at 37° C. DNA synthesis was measured by [^3H]-thymidine ([^3H]-TdR, NEN Products, Boston, Mass.) uptake. Cells were pulsed with [^3H]TdR (0.5 μCi/well) during the last 8 h of 48 h cultures. All experiments were performed in triplicate.

[3] = system: MM.1S cells; conditions: previously reported, Hideshima et al. Blood 96:2943 (2000); cited from earlier work
[4] = system: p42/44 MAPK phosphorylation; experiment: Immunoblot of IL-6 induced p42/44 MAPK phosphorylation in MM.1S cells; format: cell-based, human; conditions: IL-6 50 ng/mL for 5 min, compound 1 10 μM 90 min, PS-341 5 μM 60 min, FIG. 5
Procedure: as §1

[5] = system: MM.1S, U266, and RPMI8226 cell lines; experiment: DNA synthesis ([3H]-TdR uptake) in MM cell lines; format: cell-based, human; conditions: 48 h; FIG. 3B
Procedure: as §2
To study the direct effect of compound 1 on MM cells, [3H]-TdR uptake was measured in MM.1S, U266, and RPMI8226 cell lines cultured for 48 h in the presence of compound 1 (1.5-50 μM).

[6] = system: ICAM-1 and VCAM-1 expression on both BMSCs and MM cells; conditions: Hideshima et al., Cancer Res. 61:3071 (2001); cited from earlier work

| Structure (SMILES) | TNFα-induced phosphorylation of IκBα [1] | MM.1S cell growth [3] | p42/44 MAPK phosphorylation [4] | other results |
| --- | --- | --- | --- | --- |
| C[C@@H]1C[C@H]2[C@@H]3CCC4=CC(=O)C=C[C@]4(C)[C@@]3(F)[C@@H](O)C[C@]2(C)[C@@]1(O)C(=O)CO [Dex, dexamethasone, reference compound] | does not inhibit |  |  |  |
| Nc1cccc2c1CN(C1CCC(=O)NC1=O)C2=O (stereo not shown) [IMiD3, reference compound] |  | inhibit |  | DNA synthesis in MM.1S cell [2]: significantly (p<0.001) inhibited |
| COc1cccc(-c2cc(=O)c3ccccc3o2)c1N [PD98059] |  |  | selectively inhibits |  |
| CC(C)C[C@H](NC(=O)[C@H](Cc1ccccc1)NC(=O)c1cnccn1)B(O)O [PS-341, reference compound] | does not inhibit; also recorded: enhances |  | inhibits | [3H]-TdR uptake in all cell lines tested [5]: completely inhibited; TNFα-induced degradation of IκBα [1]: inhibit; TNFα induction of ICAM-1 and VCAM-1 expression [6]: blocks induction |
| O=C1CCC(N2C(=O)c3ccccc3C2=O)C(=O)N1 (stereo not shown) [Thalidomide] |  | inhibit |  |  |
